In patent publication US10905675B2, “Use of carbamate compound for prevention, alleviation or treatment of pruritus” (SK BIOPHARMACEUTICALS CO., LTD., priority 2016, dated 2021):

Tests used:
[1] = system: acute pruritus induced by intradermal administration of serotonin; experiment: Acute pruritus animal model induced by intradermal administration of serotonin (scratching reactions); format: in vivo, rats (Sprague-Dawley); details: rats; for inhibition of acute pruritus (number of scratching reactions) compared to the control group: 1 hour before intradermal serotonin, scratching counted for 30 minutes
Method: Mature male rats (Sprague-Dawley, 200 to 230 g) were used. The experimental animals were maintained at a light-and-darkness cycle of 12 hours (illuminated from 7 pm to 7 am), a temperature of 22 to 25° C., a relative humidity of 40 to 60%, and free access to water and food. The animals were randomly divided into three groups as follows: • Eight (8) rats as a control group, orally administered with 30% PEG400 as a vehicle at a dose of 5 ml/kg • Eight (8) rats, orally administered with the test compound at a dose of 10 mg/kg (5 ml/kg) • Eight (8) rats, orally administered with the test compound at a dose of 30 mg/kg (5 ml/kg)
On the day before the experiment, the skin fur on the right scapula of the rats was shaved to an area of about 2 cm square. On the day of the experiment, serotonin hydrochloride was dissolved in 0.9% physiological saline at a concentration of 4 mg/ml. The rats were placed in an acrylic box (20×30×20 cm) and adapted for 15 minutes in a quiet area, followed by intradermal administration of the dissolved serotonin in 50 μl per rat on the shaved area (Thomsen et al, Scratch induction in the rat by intradermal serotonin: a model for pruritus, Acta Derm Venereol, 2001).
Only when the rats scratched body parts within 5 cm square around the skin area where serotonin was administered, it was judged to be a valid scratching reaction.
The test compound was orally administered to the rats at a dose of 10 mg/kg (5 ml/kg) and 30 mg/kg (5 ml/kg) 1 hour before intradermal administration of serotonin.

[2] = system: chronic pruritus induced by administration of capsaicin immediately after birth; experiment: Chronic pruritus animal model induced by subcutaneous administration of capsaicin immediately after birth (scratching reactions); format: in vivo, rats (Sprague-Dawley); details: rats, oral 30 mg/kg, 1 hour before measurement, third week after capsaicin, scratching counted for 1 hour
Method: Baby rats within 48 hours after birth (Sprague-Dawley, 7 to 10 g) were obtained together with the mother rats, and were used. The experimental animals were maintained at a light-and-darkness cycle of 12 hours (illuminated from 7 pm to 7 am), a temperature of 22 to 25° C., a relative humidity of 40 to 60%, and free access to water and food. Until the 21st day after birth, the baby rats were bred together with the mother rats and allowed to drink the mother's milk. After the 21st day, the baby rats were kept off the milk and separated from the mother rats. The animals were randomly divided into two groups as follows: • Seven (7) rats as a control group, orally administered with 30% PEG400 as a vehicle at a dose of 5 ml/kg • Seven (7) rats, orally administered with the test compound at a dose of 30 mg/kg (5 ml/kg) […]
On the third week after capsaicin administration, the animals were placed in an acrylic box (20×30×20 cm), adapted for 30 minutes in a quiet area, and then observed for the number of scratching behaviors for 1 hour. One continuous scratching reaction was counted as one scratching reaction. […]

NC(=O)O[C@@H](Cn1ncnn1)c1ccccc1Cl [the test compound]
dose dependence of the reduction of itching responses ([1]; oral 10 mg/kg and 30 mg/kg): dose-dependent | inhibition of acute pruritus (number of scratching reactions) compared to the control group ([1]; oral 10 mg/kg): statistically significantly inhibited | inhibition of acute pruritus (number of scratching reactions) compared to the control group ([1]; oral 30 mg/kg): statistically significantly inhibited | inhibition of chronic pruritus (number of scratching reactions) compared to the control group [2]: statistically significantly inhibited
